Target: Glycogen synthase kinase-3 beta (Homo sapiens, UniProt P49841)
Experiment: GSK-3beta Kinase Inhibition Assay
Settings: pH 7.5; 37 °C
Procedure: Human GSK-3beta was expressed as the N-terminal FLAG-tagged protein using a baculovirus expression system. The kinase assay was conducted in a 96-well plate assay format. The kinase reactions were initiated by addition of ATP-solution (final 500 nM), and were incubated for 90 min at 37 deg C for GSK-3 beta. The reactions were terminated by the addition of Kinase-Glo reagent containing EDTA. […] The reaction window was calculated from the difference of the average signals obtained from the control (5% DMSO) and the background wells. […] The best-fit lines were obtained by analyzing the logistic fitting equation.

Glycogen synthase kinase-3 beta, sequence (P49841 whole entry): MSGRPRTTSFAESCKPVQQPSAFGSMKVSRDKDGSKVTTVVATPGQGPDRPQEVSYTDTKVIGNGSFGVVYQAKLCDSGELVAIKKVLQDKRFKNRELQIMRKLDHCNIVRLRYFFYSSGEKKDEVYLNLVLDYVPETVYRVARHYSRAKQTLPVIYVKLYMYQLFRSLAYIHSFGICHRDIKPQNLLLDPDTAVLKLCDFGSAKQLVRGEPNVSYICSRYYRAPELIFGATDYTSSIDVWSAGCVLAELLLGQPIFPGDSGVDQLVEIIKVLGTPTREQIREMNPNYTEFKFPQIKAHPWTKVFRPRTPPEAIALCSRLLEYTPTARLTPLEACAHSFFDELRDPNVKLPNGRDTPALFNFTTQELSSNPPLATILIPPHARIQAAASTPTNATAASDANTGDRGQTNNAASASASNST

IC50: 6.5 nM
SMILES: COc1ccc(CSc2nnc(-c3ccc4nccn4c3)o2)cc1C(F)(F)F [oxadiazole derivative, 20q]
